Measured values taken from PubChem BioAssay AID463229 (Broad Institute, 2010).

Test system: INS-1E rat beta cells, no cytokines, CellTiter-Glo ATP, 48 h
Assay: ATP level change in INS-1E without cytokines, dose response, counter-screen for beta-cell apoptosis protection project, INS-1E rat cells, ATP luminescence, cherry pick (AID 463229)

| Structure (SMILES) | AC50 [µM] |
| --- | --- |
| CCOC(=O)C(C(C)=O)c1c(Br)c(O)c(O)c2c(C(=O)c3ccc(C)cc3)coc12 (stereo not given) | 2.9 |
| CCc1ccc(OC)c(S(=O)(=O)Nc2ccc(Cc3ccncc3)cc2)c1 | 6.36 |
| COc1ccc(CNC(=O)c2c(C)oc3c2C(=O)c2ccccc2C3=O)cc1 | 7.42 |
| CCC(Sc1nc(C)cc(C)n1)C(=O)NC1=NN=C(c2ccc(C)cc2)CS1 (stereo not given) | 2.14 |
| Fc1ccc(-c2cc(-c3nnc4n3CCCCC4)c3ccccc3n2)cc1 | 8.53 |
| Cc1ccc(C#CC[N+]2(CC#Cc3ccc(C)cc3)CCCCC2)cc1 | 3.33 |
| O=C(NNC(=O)c1cccnc1SCc1cccc([N+](=O)[O-])c1)c1ccc(F)cc1 | 15.8 |
| CCc1ccc(S(=O)(=O)/N=C2/C=C(Sc3ncn[nH]3)C(=O)c3ccccc32)cc1 | 9.6 |
| CCC1CCCCN1C(=O)c1cc(COc2ccc(-n3cncn3)cc2)on1 (stereo not given) | 16.5 |
| CSc1nc(N)nc2c1ncn2CC(=O)N1CCN(Cc2c(C)cc(C)cc2C)CC1 | 2.65 |
| Cc1onc(-c2ccccc2)c1C(=O)NC(=S)NNC(=O)c1ccc(O)cc1O | 0.657 |
| CCN1CCN(Cc2ccc(NC(=O)c3cc(NC(=O)C(=O)c4c[nH]c5ccccc45)cc(OC)c3)cc2C(F)(F)F)CC1 | 7.12 |
| O=C1C=C(N2CCCCC2)c2ccccc2C1=O | 10.6 |
| CC(C)(C)c1ccc(C2CC2C(=O)N/N=C\c2ccc[nH]2)cc1 (stereo not given) | 0.987 |
| CC(=O)c1ccc(OCc2cc(C(=O)N3CCCCC3c3cccnc3)no2)cc1 (stereo not given) | 22.4 |
| CNC(=O)c1cc(Oc2ccc(NC(=O)Nc3ccc(Cl)c(C(F)(F)F)c3)cc2)ccn1 | 7.39 |
| COc1ccc2nc(C)cc(N/N=C/c3ccc(F)cc3)c2c1 | 7.11 |
| C/C(=N\NC(=O)c1cc(-c2cccnc2)nc2ccccc12)c1ccc(O)cc1O | 2.45 |
| O=C1N/C(=N\N=C\c2cccnc2)SC1Cc1ccc(SC(F)F)cc1 (stereo not given) | 9.68 |
| Cc1csc2ncnc(N3CCN(S(=O)(=O)c4cccc(C(F)(F)F)c4)CC3)c12 | 5.81 |
| COc1ccc(C2/C=C\CN(C(=O)c3ccc(C)cc3)[C@H](Cc3ccccc3)C(=O)N2Cc2ccc(F)cc2)cc1 (stereo not given in full) | 7.33 |
| O=C(/C=C/c1cccc(Cl)c1)c1ccc([N+](=O)[O-])o1 | 3.68 |
| CCCCNC(=O)c1ccc(Cn2c(=S)[nH]c3c([nH]c4ccc(OC)cc43)c2=O)cc1 | 6.92 |
| CCn1c(Cl)c(C=O)s/c1=N\S(=O)(=O)c1ccccc1 | 6.63 |
| Cn1c2c(c(=O)n(C)c1=O)C(C(F)(F)F)(C(F)(F)F)N=C(c1ccc(Cl)cc1)N2 | 0.56 |
| Cc1ccc2oc(-c3ccc(NC(=O)c4cccnc4)cc3)nc2c1 | 19.1 |
| Brc1ccc(CN2CCN(Cc3c[nH]c4ccccc34)CC2)cc1 | 6.91 |

| Structure (SMILES) | AC50 [µM] |
| --- | --- |
| Cc1ccccc1CS(=O)(=O)c1nnc([C@H](Cc2ccccc2)NC(=O)OC(C)(C)C)o1 | 13 |
| CNC[C@H](CC1CCCCC1)NC[C@H](Cc1ccccc1)NCCC12CC3CC(CC(C3)C1)C2 | 4.44 |
| CCO[C@H]1OC(C(=O)N2CCN(Cc3ccc4c(c3)OCO4)CC2)=C[C@@H](c2csc3ccccc23)[C@@H]1CCCO | 6.01 |
| Oc1c(CN2CCOCC2)cc(COCc2ccccc2)c2cccnc12 | 8.19 |
| CCc1ccc(-n2cc(-c3ccc(F)cc3)[n+]3c2SCCC3)cc1 | 0.413 |
| N#Cc1c2ccc([N+](=O)[O-])cc2[n+]([O-])n1-c1ccccc1 | 5.32 |
| Cc1ccc(-c2cc(-c3ccccc3)cc(-c3ccccc3)[n+]2-c2ccccc2)cc1 | 2.08 |
| CC1=NNC(=O)/C1=C\c1cn(-c2ccccc2)nc1-c1ccc(Cl)cc1 | 10.9 |
| Cc1ccc(C(C)C)c(OCc2nn(CC(=O)c3ccc(OC(F)F)cc3)c3[n+]2CCCCC3)c1 | 4.43 |
| COc1ccc(CCNc2ccc(C(CC(N)=O)NC(=O)c3ccc(Br)cc3)cc2[N+](=O)[O-])cc1 (stereo not given) | 16.8 |
| Cc1nc2ccccc2cc1OCc1ccc(F)cc1 | 6.6 |
| CCCCC(=O)NC(c1ccc(Cl)cc1Cl)c1ccc2cccnc2c1O (stereo not given) | 2.22 |
| CCOC(=O)c1ccc(NC(=O)c2cccnc2)cc1 | 6.64 |
| CCc1ccc(-c2nn(-c3ccccc3)cc2CSC(=N)N)cc1 | 8.32 |
| O=C(Oc1c(CN2CCOCC2)cc(Cl)c2cccnc12)c1ccccc1 | 17.1 |
| CC(C)C(=O)NC(c1ccccc1)c1cc([N+](=O)[O-])c2cccnc2c1O (stereo not given) | 10.6 |
| CCCCCc1cc(=O)oc2c(C(CCN3CCCC(C)C3)c3ccc(OC)cc3)c(OC)cc(OC)c12 (stereo not given) | 14.2 |
| Cc1nc(N/N=C/c2ccccn2)sc1C | 9.42 |
| Cc1cc(=O)[nH]c(N/N=C/c2ccccn2)n1 | 5.21 |
| Cc1ccc(C(=O)C[n+]2cc(-c3ccc(C)cc3)n3c2CCCCC3)cc1 | 1.4 |
| Cc1ccc(S(=O)(=O)N2CCN(c3ncnc4sccc34)CC2)cc1 | 8.15 |
| CC1CCN(Cc2c(C(=O)N/N=C/c3cc(Br)ccc3O)nnn2-c2nonc2N)CC1 | 2.52 |
| O=C(Nc1ccc(Cl)c(Cl)c1)N1CCSC1c1ccco1 (stereo not given) | 14.2 |
| CCCCCCCCNC(C)C(O)c1ccc(SC(C)C)cc1 (stereo not given) | 10.5 |
| CCOc1ccc(-n2c(-c3ccc(OC)cc3)c[n+]3c2CCCCC3)cc1 | 0.289 |
| COc1cc2ccccc2cc1C(=O)Nc1sc2c(c1C(N)=O)CCN(C(C)C)C2 | 9.16 |
| c1cnc(N2CCN(Cc3c[nH]c4ccccc34)CC2)nc1 | 4.83 |

| Structure (SMILES) | AC50 [µM] |
| --- | --- |
| CC(C)C(=O)NC(c1cccs1)c1cc([N+](=O)[O-])c2cccnc2c1O (stereo not given) | 9.51 |
| O=C(COc1ccc([N+](=O)[O-])cc1)Nc1ccc(C(=O)NCc2cccnc2)cc1 | 0.369 |
| O=C(Nc1ccc(Cl)c(Cl)c1)Nc1nnc(CC2=CCCCC2)s1 | 5.75 |
| CC1=NN(c2nc3ccccc3[nH]2)C(=O)/C1=C/N(C)C | 2.9 |
| CCS(=O)(=O)c1ccc(OC)c(N=Nc2ccc(O)c3ncccc23)c1 | 9.84 |
| CCCC(=O)NC(c1ccccc1OC)c1ccc2cccnc2c1O (stereo not given) | 3.28 |
| C#CCOCCOCCOCCNc1nc(N2CCN(C(=O)CCCCCCCCCCNC(=O)[C@@H](CCSC)n3cc(CCO)nn3)CC2)nc(N2CCN(C(=O)CCCCCCCCCCNC(=O)[C@H]([C@@H](C)CC)n3cc(CCCCCN)nn3)CC2)n1 | 12.9 |
| CC(C)(C)c1nnc(N/N=C/c2cc(Br)ccc2O)n(N)c1=O | 3.97 |
| CCn1c(C)nc2cc(C(=O)N/N=C/c3cccc(O)c3O)ccc21 | 8.42 |
| Clc1ccc(C(c2ccc(Cl)cc2)n2cc[n+](CC(OCc3ccc(Cl)cc3Cl)c3ccc(Cl)cc3Cl)c2)cc1 (stereo not given) | 3.69 |
| C=C[C@H](CC(C)C)N(Cc1ccccc1)S(=O)(=O)N(Cc1ccccc1)[C@@H](C=C)CC(C)C | 5.72 |
| CC(C)(C)OC(=O)NCc1ccc(NC(=O)c2nc[nH]c2C(=O)NCCNC(=O)c2[nH]cnc2C(=O)Nc2ccc(CNC(=O)OC(C)(C)C)cc2)cc1 | 10.8 |
| Cc1cc(N/N=C/c2ccc(O)cc2O)nc(-c2ccccc2O)n1 | 7.47 |
| Cc1cccc2cc(-c3ccccc3)c(-c3ccccc3)c[n+]12 | 4.21 |
| COc1cccc(CN2CCC(N(CCc3ccccc3)Cc3ccccc3)CC2)c1OC | 14.7 |
| Cc1ccc(O)c(NC(=S)NC(=O)c2ccc(-c3ccc(Cl)cc3)o2)c1 | 23.9 |
| CCCCCCCCSc1nnc(CSc2nc3nc(C)cc(C)n3n2)o1 | 26.1 |
| Cc1ccc(C(=O)C[n+]2cc(-c3ccccc3)n3c2CCCCC3)cc1 | 6 |
| Cc1cc(C)n(CCC(=O)N/N=C/c2c(O)ccc3ccccc23)n1 | 9.78 |
| COc1ccc2c(C(=O)NCc3ccc4c(c3)OCO4)c(-c3ccc(S(C)(=O)=O)cc3)sc2c1 | 9.16 |
| Cc1ccc(-c2c[n+](Cc3ccc(Cl)cc3)c3n2CCC3)cc1 | 7.79 |
| Cc1ccc(C)c(S(=O)(=O)Nc2cc(SCC(=O)O)c(O)c3ccccc23)c1 | 7.19 |
| Cc1ccc(S(=O)(=O)c2ccc([N+](=O)[O-])cn2)cc1 | 13.5 |
| Cc1[nH]c2ccccc2c1CN1CCC(Cc2ccccc2)CC1 | 3.99 |
| CCOc1ccc(C(=O)c2cc([N+](=O)[O-])ccc2N2CCOCC2)cc1 | 0.371 |
| O=[N+]([O-])c1cc(CN2CCN(c3ccccc3)CC2)c(O)c2ncccc12 | 3.1 |
| CCOC(=O)c1c(C)oc2c1C(=O)c1ccccc1C2=O | 12.3 |

| Structure (SMILES) | AC50 [µM] |
| --- | --- |
| COc1ccc(C)cc1Nc1n[n+](-c2ccccc2)c(-c2c(OC)ccc3ccccc23)s1 | 6.88 |
| Cc1ccc(NC(=O)COc2ccc(N(C)C(=O)C(C)(C)C)cc2)cc1S(=O)(=O)N1CCCCC1 | 5.78 |
| Cc1occc(=O)c1OC(=O)Nc1ccc(Cl)c(Cl)c1 | 7.74 |
| Brc1ccccc1CN1CCN(Cc2c[nH]c3ccccc23)CC1 | 2.76 |
| COC(=O)[C@H](Cc1ccccc1)N(Cc1ccccc1)S(=O)(=O)N(Cc1ccccc1)[C@@H](Cc1ccccc1)C(=O)OC | 4.38 |
| Cc1ccc(-n2cccc2C(=S)N=P(N(C)C)(N(C)C)N(C)C)cc1 | 7.11 |
| O=C(c1ccc2c(c1)[nH]c(=S)n1c3ccccc3nc21)N1CCN(c2cccc(Cl)c2)CC1 | 14.5 |
| COc1ccc(-c2nc(-c3ccccn3)no2)cc1 | 3.11 |
| Cc1cnc(NC(=O)CN2CCN(c3ccccn3)CC2)s1 | 4.35 |
| O=C(Nc1ccc(OC(F)F)cc1)Nc1cccc(C(F)(F)F)c1 | 7.65 |
| CCCCCCCC(=O)Nc1ccc(C(=O)N/N=C/c2cccc([N+](=O)[O-])c2)cc1 | 6.63 |
| Cc1ccc(/C=N/NC(=O)c2c(-c3ccccc3)noc2C)c(O)c1 | 7.91 |
| Cc1ccc(-c2nn(-c3ccccc3)cc2/C=N/NC(=O)c2ccc3c(c2)OCO3)cc1 | 5.63 |
| Cc1ccc2[nH]cc(/C=C/c3cc[n+](C)cc3)c2c1 | 5.46 |
| COc1cc(C(=O)NC(=S)NNC(=O)c2cnccn2)cc(OC)c1OC | 7.66 |
| Cc1cc(-c2n[nH]c(=S)n2/N=C/C(Br)=C/c2ccccc2)n[nH]1 | 15.6 |
| Cc1[nH]n(C2=NCCS2)c(=O)c1N=Nc1cccc(C(F)(F)F)c1 | 7.05 |
| COCc1ccc(O)c2ncccc12 | 15.9 |
| O=C1C(=O)c2ccc(-c3ccccc3)cc2-c2ccccc21 | 1.1 |
| Cc1cc(C)c(C)c(S(=O)(=O)N2CCN(c3ncnc4ccccc34)CC2)c1C | 6.34 |
| COc1cnc(-c2ccccn2)nc1Oc1ccc(Cl)c2ccccc12 | 15.3 |
| Oc1ccc(CCNc2ncnc3ccc(Cl)cc23)cc1 | 5.59 |
| O=S(=O)(c1ccc(Cl)cc1)N1CCN(Cc2ccc(O)c3ncccc23)CC1 | 7.13 |
| CCn1c(=O)c([N+](=O)[O-])c(Cl)c2ccccc21 | 7.4 |
